Data: patent US10633419B2, “Immunomodulators” (BRISTOL-MYERS SQUIBB COMPANY, priority 2014, dated 2020)
Positions of bridges follow the written chain, without caps; N, C: chain ends. Non-standard residues stand in square brackets, D forms with d. Residues, ends and D or L forms follow the SMILES beside them. *: point of attachment. X6 = O=C(O)CCCCCCCCCCCCCCCCC(=O)N[C@@H](CCC(=O)NCCCOCCOCCOCCCN*)C(=O)O; X18 = O=C(O)CCCCCCCCCCCCCCC(=O)N[C@@H](CC(=O)NCCCOCCOCCOCCCN*)C(=O)O; Trp(1-CH2COOH) = N[C@@H](Cc1cn(CC(=O)O)c2ccccc12)C(=O)O; X14 = O=C(O)CCCCCCCCCCNC(=O)CCC(=O)NCCCOCCOCCOCCCN*; X9 = O=C(O)CCCCCCCCCCCCCCCCC(=O)N[C@@H](CCN*)C(=O)O; d(cisHyp) = O=C(O)[C@H]1C[C@@H](O)CN1; NH(CH2)12COOH = O=C(O)CCCCCCCCCCCCN*; cisHyp = O=C(O)[C@@H]1C[C@H](O)CN1; Hyp = O=C(O)[C@@H]1C[C@@H](O)CN1; Myristoyl = CCCCCCCCCCCCCC(=O)*; dHyp = O=C(O)[C@H]1C[C@H](O)CN1; NMeNle = CCCC[C@H](NC)C(=O)O; Pip = O=C(O)[C@@H]1CCCCN1; NMeA = CN[C@@H](C)C(=O)O; Aun = NCCCCCCCCCCC(=O)O; Dab = NCC[C@H](N)C(=O)O; Dap = NC[C@H](N)C(=O)O

What follows are compounds tested against T1, PD-L1 (Homo sapiens, UniProt Q9NZQ7) (assay: PD-1/PD-L1 Homogenous Time-Resolved Fluorescence (HTRF) binding assay (PD-1-Ig/PD-L1-His)). Details: inhibition of PD-1-Ig binding to PD-L1-TVMV-His; value given as range class; read-out: HTRF IC50.
T1 construct: hPDL1(19-239)-TVMV-His; made in house; host or cells: HEK293T
T1 sequence (Q9NZQ7 with tags, fused parts or gaps): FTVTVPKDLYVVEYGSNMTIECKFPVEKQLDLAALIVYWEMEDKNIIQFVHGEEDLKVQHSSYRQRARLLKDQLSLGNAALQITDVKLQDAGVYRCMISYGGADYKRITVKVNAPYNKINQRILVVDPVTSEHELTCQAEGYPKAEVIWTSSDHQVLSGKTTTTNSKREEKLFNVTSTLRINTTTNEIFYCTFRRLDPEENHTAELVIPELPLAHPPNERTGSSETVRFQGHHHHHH
Excerpt: The ability of the macrocyclic peptides of the present disclosure to bind to PD-L1 was investigated using a PD-1/PD-L1 Homogenous Time-Resolved Fluorescence (HTRF) binding assay.
Homogenous Time-Resolved Fluorescence (HTRF) Assays of Binding of Soluble PD-1 to Soluble PD-L1. Soluble PD-1 and soluble PD-L1 refers to proteins with carboxyl-end truncations that remove the transmembrane-spanning regions and are fused to heterologous sequences, specifically the Fc portion of the human immunoglobuling G sequence (Ig) or the hexahistidine epitope tag (His). All binding studies were performed in an HTRF assay buffer consisting of dPBS supplemented with 0.1% (w/v) bovine serum albumin and 0.05% (v/v) Tween-20. For the PD-1-Ig/PD-L1-His binding assay, inhibitors were pre-incubated with PD-L1-His (10 nM final) for 15 m in 4 μl of assay buffer, followed by addition of PD-1-Ig (20 nM final) in 1 μl of assay buffer and further incubation for 15m. PD-L1 fusion proteins from either human, cynomologous macaques, mouse, or other species were used. HTRF detection was achieved using europium crypate-labeled anti-Ig monoclonal antibody (1 nM final) and allophycocyanin (APC) labeled anti-His monoclonal antibody (20 nM final). Antibodies were diluted in HTRF detection buffer and 5 μl was dispensed on top of binding reaction. The reaction was allowed to equilibrate for 30 minutes and signal (665 nm/620 nm ratio) was obtained using an EnVision fluorometer. Additional binding assays were established between PD-1-Ig/PD-L2-His (20 and 5 nM, respectively), CD80-His/PD-L1-Ig (100 and 10 nM, respectively) and CD80-His/CTLA4-Ig (10 and 5 nM, respectively). Binding/competition studies between biotinylated Compound No. 71 and human PD-L1-His were performed as follows. Macrocyclic peptide inhibitors were pre-incubated with PD-L1-His (10 nM final) for 60 minutes in 4 μl of assay buffer followed by addition of biotinylated Compound No. 71 (0.5 nM final) in 1 μl of assay buffer. Binding was allowed to equilibrate for 30 minutes followed by addition of europium crypated labeled Streptavidin (2.5 pM final) and APC-labeled anti-His (20 nM final) in 5 μl of HTRF buffer. The reaction was allowed to equilibrate for 30m and signal (665 nm/620 nm ratio) was obtained using an EnVision fluorometer.
Recombinant Proteins. Carboxyl-truncated human PD-1 (amino acids 25-167) with a C-terminal human Ig epitope tag [hPD-1 (25-167)-3S-IG] and human PD-L1 (amino acids 18-239) with a C-terminal His epitope tag [hPD-L1(19-239)-tobacco vein mottling virus protease cleavage site (TVMV)-His] were expressed in HEK293T cells and purified sequentially by recombinant Protein A affinity chromatography and size exclusion chromatography. Human PD-L2-His (Sino Biologicals), CD80-His (Sino Biologicals), CTLA4-Ig (RnD Systems) were all obtained through commercial sources.

SMILES	IC50
CCCC[C@H]1C(=O)N(C)[C@@H](CCCC)C(=O)N[C@@H](CC(C)C)C(=O)N[C@H](C(=O)NCCCOCCOCCOCCCNC(=O)CCC(=O)NCCCCCCCCCCC(=O)O)CSCC(=O)N[C@@H](Cc2ccc(O)cc2)C(=O)N(C)[C@@H](C)C(=O)N[C@@H](CC(N)=O)C(=O)N2CCC[C@H]2C(=O)N[C@@H](CN)C(=O)N[C@@H](CC(C)C)C(=O)N2C[C@H](O)C[C@@H]2C(=O)N[C@@H](Cc2c[nH]c3ccccc23)C(=O)N[C@@H](CCN)C(=O)N[C@@H](Cc2cn(CC(=O)O)c3ccccc23)C(=O)N1C [Example 11138] ({CH2CO}-Y[NMeA]NP[Dap]L[d(cisHyp)]W[Dab][Trp(1-CH2COOH)][NMeNle][NMeNle]LC-X14; thioether N-14)	10 to 99 nM
CCCC[C@H]1C(=O)N(C)[C@@H](CCCC)C(=O)N[C@@H](CC(C)C)C(=O)N[C@H](C(=O)NCC(=O)N[C@@H](CC(=O)NCC[C@H](NC(=O)CCCCCCCCCCCCCCCCC(=O)O)C(=O)O)C(=O)O)CSCC(=O)N[C@@H](Cc2ccc(O)cc2)C(=O)N2CCCC[C@H]2C(=O)N[C@@H](CC(N)=O)C(=O)N2CCC[C@H]2C(=O)N[C@@H](CN)C(=O)N[C@@H](CC(C)C)C(=O)N2C[C@H](O)C[C@H]2C(=O)N[C@@H](Cc2c[nH]c3ccccc23)C(=O)N[C@@H](CCN)C(=O)N[C@@H](Cc2cn(CC(=O)O)c3ccccc23)C(=O)N1C [Example 13144] ({CH2CO}-Y[Pip]NP[Dap]L[Hyp]W[Dab][Trp(1-CH2COOH)][NMeNle][NMeNle]LCGD(X9)-OH; thioether N-14)	10 to 99 nM
CCCC[C@H]1C(=O)N(C)[C@@H](CCCC)C(=O)N[C@@H](CC(C)C)C(=O)N[C@H](C(=O)N[C@H](CC(=O)O)C(=O)NCC(=O)NCCCCCCCCCCCCC(=O)O)CSCC(=O)N[C@@H](Cc2ccc(O)cc2)C(=O)N(C)[C@@H](C)C(=O)N[C@@H](CC(=O)O)C(=O)N2CCC[C@@H]2C(=O)N[C@@H](Cc2cnc[nH]2)C(=O)N[C@@H](CCCCN)C(=O)N2C[C@@H](O)C[C@H]2C(=O)N[C@@H](Cc2c[nH]c3ccccc23)C(=O)N[C@@H](CCCCN)C(=O)N[C@@H](Cc2cn(CC(=O)O)c3ccccc23)C(=O)N1C [Example 11211] ({CH2CO}-Y[NMeA]D[dP]HK[cisHyp]WK[Trp(1-CH2COOH)][NMeNle][NMeNle]LC[dD]G-{NH(CH2)12COOH}; thioether N-14)	0.3 to 9.9 nM
CCCC[C@H]1C(=O)N(C)[C@@H](CCCC)C(=O)N[C@@H](CC(C)C)C(=O)N[C@@H](C(=O)NCC(=O)N[C@@H](CC(=O)O)C(=O)NCCCOCCOCCOCCCNC(=O)C[C@H](NC(=O)CCCCCCCCCCCCCCC(=O)O)C(=O)O)CSCC(=O)N[C@@H](Cc2ccc(O)cc2)C(=O)N(C)[C@@H](C)C(=O)N[C@@H](CC(N)=O)C(=O)N2CCC[C@@H]2C(=O)N[C@@H](CN)C(=O)N[C@@H](CC(C)C)C(=O)N2C[C@@H](O)C[C@@H]2C(=O)N[C@@H](Cc2c[nH]c3ccccc23)C(=O)N[C@@H](CCN)C(=O)N[C@@H](Cc2cn(CC(=O)O)c3ccccc23)C(=O)N1C [Example 11238] ({CH2CO}-Y[NMeA]N[dP][Dap]L[dHyp]W[Dab][Trp(1-CH2COOH)][NMeNle][NMeNle]L[dC]GD-X18; thioether N-14)	0.3 to 9.9 nM
CCCC[C@H]1C(=O)N(C)[C@@H](CCCC)C(=O)N[C@@H](CC(C)C)C(=O)N[C@H](C(=O)NCC(=O)N[C@@H](CCC(=O)NCC[C@H](NC(=O)CCCCCCCCCCCCCCCCC(=O)O)C(=O)O)C(=O)O)CSCC(=O)N[C@@H](Cc2ccc(O)cc2)C(=O)N2CCCC[C@H]2C(=O)N[C@@H](CC(N)=O)C(=O)N2CCC[C@H]2C(=O)N[C@@H](CN)C(=O)N[C@@H](CC(C)C)C(=O)N2C[C@H](O)C[C@H]2C(=O)N[C@@H](Cc2c[nH]c3ccccc23)C(=O)N[C@@H](CCN)C(=O)N[C@@H](Cc2cn(CC(=O)O)c3ccccc23)C(=O)N1C [Example 13143] ({CH2CO}-Y[Pip]NP[Dap]L[Hyp]W[Dab][Trp(1-CH2COOH)][NMeNle][NMeNle]LCGE(X9)-OH; thioether N-14)	100 to 1600 nM
CCCC[C@H]1C(=O)N(C)[C@@H](CCCC)C(=O)N[C@@H](CC(C)C)C(=O)N[C@H](C(=O)NCC(=O)NCC(=O)NCC(=O)NCCCCCCCCCCC(=O)O)CSCC(=O)N[C@@H](Cc2ccc(O)cc2)C(=O)N(C)[C@@H](C)C(=O)N[C@@H](CC(=O)O)C(=O)N2CCC[C@H]2C(=O)N[C@@H](Cc2cnc[nH]2)C(=O)N[C@@H](CCC(=O)O)C(=O)N2C[C@H](O)C[C@H]2C(=O)N[C@@H](Cc2c[nH]c3ccccc23)C(=O)N[C@@H](CCN)C(=O)N[C@@H](Cc2cn(CC(=O)O)c3ccccc23)C(=O)N1C [Example 11098] ({CH2CO}-Y[NMeA]DPHE[Hyp]W[Dab][Trp(1-CH2COOH)][NMeNle][NMeNle]LCGGG[Aun]-OH; thioether N-14)	10 to 99 nM
CCCC[C@H]1C(=O)N(C)[C@@H](CCCC)C(=O)N[C@@H](CC(C)C)C(=O)N[C@H](C(=O)NCC(=O)N[C@@H](Cc2cn(CC[C@H](NC(=O)CCCCCCCCCCCCCCCCC(=O)O)C(=O)O)nn2)C(=O)O)CSCC(=O)N[C@@H](Cc2ccc(F)cc2)C(=O)N2CCCC[C@H]2C(=O)N[C@@H](CC(=O)O)C(=O)N2CCC[C@H]2C(=O)N[C@@H](CN)C(=O)N[C@@H](CC(C)C)C(=O)N2C[C@H](O)C[C@H]2C(=O)N[C@@H](Cc2c[nH]c3ccccc23)C(=O)N[C@@H](CCN)C(=O)N[C@@H](Cc2cn(CC(=O)O)c3ccccc23)C(=O)N1C [Example 14122]	10 to 99 nM
CCCCCCCCCCCCCC(=O)NCCCC[C@H](NC(=O)[C@H](CC(=O)O)NC(=O)[C@H](CC(=O)O)NC(=O)CNC(=O)[C@@H]1CSCC(=O)N[C@@H](Cc2ccc(O)cc2)C(=O)N(C)[C@@H](C)C(=O)N[C@@H](CC(=O)O)C(=O)N2CCC[C@H]2C(=O)N[C@@H](Cc2cnc[nH]2)C(=O)N[C@@H](CC(C)C)C(=O)N2C[C@H](O)C[C@H]2C(=O)N[C@@H](Cc2c[nH]c3ccccc23)C(=O)N[C@@H](CO)C(=O)N[C@@H](Cc2c[nH]c3ccccc23)C(=O)N(C)[C@@H](CCCC)C(=O)N(C)[C@@H](CCCC)C(=O)N[C@@H](CCCNC(=N)N)C(=O)N1)C(N)=O [Example 11014] ({CH2CO}-Y[NMeA]DPHL[Hyp]WSW[NMeNle][NMeNle]RCGDDK(Myristoyl)-NH2; thioether N-14)	100 to 1600 nM
CCCC[C@H]1C(=O)N(C)[C@@H](CCCC)C(=O)N[C@@H](CC(C)C)C(=O)N[C@H](C(=O)N[C@@H](CC(=O)O)C(=O)N[C@@H](CC(=O)NCCCOCCOCCOCCCNC(=O)CC[C@H](NC(=O)CCCCCCCCCCCCCCCCC(=O)O)C(=O)O)C(=O)O)CSCC(=O)N[C@@H](Cc2ccc(O)cc2)C(=O)N(C)[C@@H](C)C(=O)N[C@@H](CC(N)=O)C(=O)N2CCC[C@H]2C(=O)N[C@@H](CN)C(=O)N[C@@H](CC(C)C)C(=O)N2C[C@H](O)C[C@H]2C(=O)N[C@@H](Cc2c[nH]c3ccccc23)C(=O)N[C@@H](CCN)C(=O)N[C@@H](Cc2cn(CC(=O)O)c3ccccc23)C(=O)N1C [Example 11227] ({CH2CO}-Y[NMeA]NP[Dap]L[Hyp]W[Dab][Trp(1-CH2COOH)][NMeNle][NMeNle]LCDD(X6)-OH; thioether N-14)	0.3 to 9.9 nM
CCCCCCCCCCCCCCCCNC(=O)[C@H](CC(=O)O)NC(=O)CCCCCCCCCCNC(=O)[C@@H]1CSCC(=O)N[C@@H](Cc2ccc(O)cc2)C(=O)N(C)[C@@H](C)C(=O)N[C@@H](CC(N)=O)C(=O)N2CCC[C@H]2C(=O)N[C@@H](Cc2cnc[nH]2)C(=O)N[C@@H](CC(C)C)C(=O)N2C[C@H](O)C[C@H]2C(=O)N[C@@H](Cc2c[nH]c3ccccc23)C(=O)N[C@@H](CO)C(=O)N[C@@H](Cc2c[nH]c3ccccc23)C(=O)N(C)[C@@H](CCCC)C(=O)N(C)[C@@H](CCCC)C(=O)N[C@@H](CCCNC(=N)N)C(=O)N1 [Example 11119]	100 to 1600 nM
CCCC[C@H]1C(=O)N(C)[C@@H](CCCC)C(=O)N[C@@H](CCCNC(=N)N)C(=O)N[C@H](C(=O)NCC(=O)NCC(=O)NCCCCCCCCCCC(=O)O)CSCC(=O)N[C@@H](Cc2ccc(O)cc2)C(=O)N(C)[C@@H](C)C(=O)N[C@@H](CC(=O)O)C(=O)N2CCC[C@H]2C(=O)N[C@@H](Cc2cnc[nH]2)C(=O)N[C@@H](CC(C)C)C(=O)N2C[C@H](O)C[C@H]2C(=O)N[C@@H](Cc2c[nH]c3ccccc23)C(=O)N[C@@H](CO)C(=O)N[C@@H](Cc2c[nH]c3ccccc23)C(=O)N1C [Example 11071] ({CH2CO}-Y[NMeA]DPHL[Hyp]WSW[NMeNle][NMeNle]RCGG[Aun]-OH; thioether N-14)	0.3 to 9.9 nM
